{
  "source": "paper PMC7865387",
  "about": "“Artemether-Loaded Zein Nanoparticles: An Innovative Intravenous Dosage Form for the Management of Severe Malaria” (International Journal of Molecular Sciences, 2021)",
  "key": {"[1]": {"parameters": "method as in PMID 21914160", "details": "intravenous artesunate, clinical practice; cited from earlier work"}, "[2]": {"details": "cited from earlier work"}, "[3]": {"test": "In vitro release study (sample and separate method)", "assay_type": "physicochemical", "details": "PBS pH 7.4, 37 °C, sink conditions; n = 3", "protocol": "The dissolution profile of artemether-loaded zein nanoparticles was studied by the “sample and separate” method. In brief, artemether-loaded zein nanoparticle powders containing 6 mg artemether were put in 100 mL phosphate buffered saline (PBS) of pH 7.4. The study was performed under sink conditions at 37 ± 0.5 °C with 150 rpm stirring. The beaker was covered with parafilm to minimize water loss via evaporation. In total, 1 mL samples were withdrawn at selected time points (1/12, 1/6, 1/4, 1/2, 1, 2, 3, 4, 5, 6, 24 h). Samples were centrifuged at 10,800 rpm for 30 min and the supernatants were analyzed by HPLC in the same way as drug content. Then, 1 mL PBS at 37 °C was added after each sampling to maintain sink condition. The experiment was repeated 3 times to ensure consistency. Raw artemether was used as control. Mean values and standard deviations were subsequently calculated."}, "red blood cells (RBCs)": {"tested_on": "red blood cells (RBCs)", "test": "In vitro hemolytic test", "assay_type": "cell-based", "details": "artemether 2 mg/mL in 5% DMSO; 4% v/v rat RBCs, 37 °C, 1 h; positive control Triton X 100", "protocol": "This test was performed to examine the hemolytic potential of artemether-loaded zein nanoparticles and the formulation ingredients on red blood cells (RBCs). Freshly collected rat blood was centrifuged at 1500× g for 10 min at 4 °C. The plasma was collected for other purpose. The remaining RBCs were washed with PBS and then centrifuged at 1500× g at 4 °C for 5 min. After two repeats of such procedures, the RBCs were diluted 25 times with PBS to make a 4% v/v RBCs dispersion. Such RBCs were kept at 4 °C and used within 24 h. The impact of artemether-loaded zein nanoparticles containing 2 mg/mL artemether, raw artemether in 5% v/v aqueous DMSO solution (2 mg/mL), 5% v/v aqueous DMSO solution, sodium caseinate (7.5 mg/mL) solution, artemether (2 mg/mL) together with sodium caseinate (7.5 mg/mL) solution was assessed. PBS and 1% v/v Triton-X 100 solution were assessed by adding 1 mL of the test solutions each to 1 mL of the 4% v/v RBCs dispersion. Each sample was incubated with the RBCs at 37 °C for 1 h and then centrifuged at 1500× g for 10 min. The absorbance of the supernatant was taken at 550 nm with U-2900 UV spectrophotometer (Hitachi, Japan). Percentage haemolysis was calculated as follows:(3) Hemolysis (%)=AbsorbanceTest group−AbsorbancePBS/AbsorbanceTriton−X100−AbsorbancePBS×100%"}},
  "data": [
    {"molecule": "C[C@H]1[C@H](OC(=O)CCC(=O)O)O[C@@H]2O[C@@]3(C)CC[C@H]4[C@H](C)CC[C@@H]1[C@@]24OO3", "note": "[artesunate]", "values": [
      {"measurement": "half-life", "setting": "[1]", "result": "less than 1 h"}
    ]},
    {"molecule": "Zein", "values": [
      {"measurement": "isoelectric point (pI)", "setting": "[2]", "result": 6.2}
    ]},
    {"molecule": "sodium caseinate", "values": [
      {"measurement": "isoelectric point (pI)", "setting": "[2]", "result": 4.5}
    ]},
    {"molecule": "CO[C@H]1O[C@@H]2O[C@@]3(C)CC[C@H]4[C@H](C)CC[C@@H]([C@H]1C)[C@@]24OO3", "note": "[artemether]", "values": [
      {"measurement": "artemether released / dissolved within 5 h", "setting": "[3]", "result": "almost all"},
      {"measurement": "hemolytic effect (in words)", "setting": "red blood cells (RBCs)", "result": "destroyed RBCs as much as the positive control"}
    ]}
  ]
}
